Tests used:
[1] = published sources; cited from earlier work
[2] = oral pathway; more conservative of carcinogenic or chronic value; published sources; cited from earlier work
[3] = sand
Source text: Mobility it defined as the ability of a chemical to migrate in the environment. Mobility of a chemical in the environment is governed by two factors that include the physical chemistry of the chemical and the physical and chemical characteristics of the geologic environment to which the chemical is released.
To obtain a value to represent the mobility of each compound, two variables are used: Henry's Law constant (H), which focuses on the physical chemistry of the chemical and the retardation factor (R), which focuses on the physical and chemical characteristics of the geological environment. The retardation factor was calculated by first calculating the distribution coefficient using Equation 1. Kd=(Foc)(Koc) where: Kd=distribution coefficient (mL·g^−1); Koc=organic carbon partition coefficient (1/mg); Foc=fraction of organic carbon in soil (mg/mg)
Values for the organic carbon partition coefficient can be obtained from location-specific testing of soil or from various published sources. And the fraction of organic carbon in soil can be obtained from location-specific testing of soil or from various published sources.
Once the distribution coefficient is calculated, the Retardation Factor can be calculated using Equation 2. [formula] where: R is the retardation factor; ρb=bulk density of aquifer matrix (g/cm^3); Kd=distribution coefficient (mL·g^−1); η=effective porosity Henry's Law constant (H) (atm.·mol^−1·m^−3) is a measure of the tendency for organic solutes to volatilize. It is related to vapor pressure (VP) (atm.), molecular weight (MW) (g/mol); and solubility in water (Ws) (g/L) according to Equation (3): H=(VP)/(MW)(Ws) With Henry's Law constant and the retardation factor in place, the mobility of a specific compound is expressed as Equation (4): M=(H)(R) where: M=mobility; H=Henry's Law constant; R=retardation factor

SMILES: c1ccccc1 [benzene]
- Henry's Law constant (H) [1]: 0.228 atm.·mol^−1·m^−3
- toxicity value (T) [2]: 0.04 mg/kg-day^−1
- mobility factor (M) ([3]; M=(H)(R)): 0.2576
- distribution coefficient (Kd) ([3]; Foc 0.0003 mg/mg, Kd=Foc×Koc): 0.0177 mL/g
- retardation factor (R) ([3]; bulk density 1.8 g/cm^3, effective porosity 0.25): 1.13

Reference: patent publication US20070233400A1, “Method of calculating environmental risk of a chemical” (AMSTED Industries Incorporated, priority 2006, published 2007)
